Values joined by “and” are separate entries in the source; they are usually repeats but may differ in a detail not shown here. Equal entries are not always repeated.
Test system: Bt474-TxR
Assay: SRB cell viability assay, lapatinib with/without wilforlide A pretreatment
Assay type: cell-based
[1] = Lapatinib 0.067 μM, 72 h, no wilforlide A pretreatment, Table 25
[2] = Lapatinib 0.2 μM, 72 h, pretreated with 25 μg/ml wilforlide A for 2 h, Table 26
[3] = Lapatinib 0.67 μM, 72 h, no wilforlide A pretreatment, Table 27
[4] = Lapatinib 0.67 μM, 72 h, pretreated with 25 μg/ml wilforlide A for 2 h, Table 26
[5] = Lapatinib 2.0 μM, 72 h, no wilforlide A pretreatment, Table 25
[6] = Lapatinib 2.0 μM, 72 h, no wilforlide A pretreatment, Table 27
[7] = Lapatinib 2.0 μM, 72 h, pretreated with 25 μg/ml wilforlide A for 2 h, Table 26
[8] = Lapatinib 6.7 μM, 72 h, no wilforlide A pretreatment, Table 25

## CS(=O)(=O)CCNCc1ccc(-c2ccc3ncnc(Nc4ccc(OCc5cccc(F)c5)c(Cl)c4)c3c2)o1 [lapatinib]
72 h, Bt474-TxR, wilforlide A 2.5 μg/ml pre-Tx, lapatinib 0.001 μM 72 h
  viability at 0.001 µM: 100%
72 h, Bt474-TxR, wilforlide A 2.5 μg/ml pre-Tx, lapatinib 0.01 μM 72 h
  viability at 0.01 µM: 103%
72 h, Bt474-TxR, wilforlide A 2.5 μg/ml pre-Tx, lapatinib 0.067 μM 72 h
  viability at 0.067 µM: 96.1%
72 h, Bt474-TxR, wilforlide A 2.5 μg/ml pre-Tx, lapatinib 0.2 μM 72 h
  viability at 0.2 µM: 84.8%
72 h, Bt474-TxR, wilforlide A 2.5 μg/ml pre-Tx, lapatinib 0.67 μM 72 h
  viability at 0.67 µM: 76%
72 h, Bt474-TxR, wilforlide A 2.5 μg/ml pre-Tx, lapatinib 2.0 μM 72 h
  viability at 2 µM: 67.4%
72 h, Bt474-TxR, wilforlide A 2.5 μg/ml pre-Tx, lapatinib 6.7 μM 72 h
  viability at 6.7 µM: 70.2%
72 h, Bt474-TxR, wilforlide A 2.5 μg/ml pre-Tx, lapatinib 20 μM 72 h
  viability at 20 µM: 60.9%
Bt474-TxR, wilforlide A 2.5 μg/ml pre-Tx, lapatinib 0.001 μM 72 h
  mean A: 1.260
Bt474-TxR, wilforlide A 2.5 μg/ml pre-Tx, lapatinib 0.001 μM 72 h, background = 0.045
  A at 565 nm: 1.301 and 1.370
Bt474-TxR, wilforlide A 2.5 μg/ml pre-Tx, lapatinib 0.01 μM 72 h
  mean A: 1.293
Bt474-TxR, wilforlide A 2.5 μg/ml pre-Tx, lapatinib 0.01 μM 72 h, background = 0.045
  A at 565 nm: 1.309 and 1.368
Bt474-TxR, wilforlide A 2.5 μg/ml pre-Tx, lapatinib 0.067 μM 72 h, background = 0.045
  A at 565 nm: 1.297
Bt474-TxR, wilforlide A 2.5 μg/ml pre-Tx, lapatinib 0.67 μM 72 h
  mean A: 0.957
Bt474-TxR, wilforlide A 2.5 μg/ml pre-Tx, lapatinib 0.67 μM 72 h, background = 0.045
  A at 565 nm: 0.898 and 0.975
Bt474-TxR, wilforlide A 2.5 μg/ml pre-Tx, lapatinib 2.0 μM 72 h
  mean A: 0.849
Bt474-TxR, wilforlide A 2.5 μg/ml pre-Tx, lapatinib 2.0 μM 72 h, background = 0.045
  A at 565 nm: 0.895 and 0.791 and 0.861
Bt474-TxR, wilforlide A 2.5 μg/ml pre-Tx, lapatinib 6.7 μM 72 h
  mean A: 0.884
Bt474-TxR, wilforlide A 2.5 μg/ml pre-Tx, lapatinib 6.7 μM 72 h, background = 0.045
  A at 565 nm: 0.947 and 0.814 and 0.893
Bt474-TxR, wilforlide A 2.5 μg/ml pre-Tx, lapatinib 20 μM 72 h
  mean A: 0.768
Bt474-TxR, wilforlide A 2.5 μg/ml pre-Tx, lapatinib 20 μM 72 h, background = 0.045
  A at 565 nm: 0.798 and 0.689 and 0.817
Lapatinib 0.001 μM, 72 h, no wilforlide A pretreatment, Table 25
  viability at 0.001 µM: 100%
Lapatinib 0.001 μM, 72 h, no wilforlide A pretreatment, Table 25, background = 0.045
  A at 565 nm: 1.272 and 1.341
Lapatinib 0.001 μM, 72 h, no wilforlide A pretreatment, Table 27
  viability at 0.001 µM: 100%
Lapatinib 0.001 μM, 72 h, pretreated with 25 μg/ml wilforlide A for 2 h, Table 26
  viability at 0.001 µM: 100%
Lapatinib 0.01 μM, 72 h, no wilforlide A pretreatment, Table 25
  mean A: 1.338
Lapatinib 0.01 μM, 72 h, no wilforlide A pretreatment, Table 25, background = 0.045
  A at 565 nm: 1.352 and 1.344 and 1.318
Lapatinib 0.01 μM, 72 h, no wilforlide A pretreatment, Table 27
  viability at 0.01 µM: 99.5%
Lapatinib 0.01 μM, 72 h, pretreated with 25 μg/ml wilforlide A for 2 h, Table 26
  viability at 0.01 µM: 96.2%
[1]
  mean A: 1.304
  viability at 0.067 µM: 105%
Lapatinib 0.067 μM, 72 h, no wilforlide A pretreatment, Table 25, background = 0.045
  A at 565 nm: 1.320 and 1.343
Lapatinib 0.067 μM, 72 h, no wilforlide A pretreatment, Table 27
  viability at 0.067 µM: 98.7%
Lapatinib 0.067 μM, 72 h, pretreated with 25 μg/ml wilforlide A for 2 h, Table 26
  viability at 0.067 µM: 94.6%
Lapatinib 0.2 μM, 72 h, no wilforlide A pretreatment, Table 25
  viability at 0.2 µM: 92.8%
Lapatinib 0.2 μM, 72 h, no wilforlide A pretreatment, Table 27
  viability at 0.2 µM: 94%
[2]
  mean A: 0.994
  viability at 0.2 µM: 86.6%
Lapatinib 0.2 μM, 72 h, pretreated with 25 μg/ml wilforlide A for 2 h, Table 26, background = 0.047
  A at 565 nm: 0.963
Lapatinib 0.67 μM, 72 h, no wilforlide A pretreatment, Table 25
  viability at 0.67 µM: 87%
[3]
  mean A: 0.994
  viability at 0.67 µM: 85%
Lapatinib 0.67 μM, 72 h, no wilforlide A pretreatment, Table 27, background = 0.047
  A at 565 nm: 0.955
[4]
  mean A: 0.872
  viability at 0.67 µM: 76%
Lapatinib 0.67 μM, 72 h, pretreated with 25 μg/ml wilforlide A for 2 h, Table 26, background = 0.047
  A at 565 nm: 0.813 and 0.937 and 0.865
[5]
  mean A: 0.987
  viability at 2 µM: 79.1%
Lapatinib 2.0 μM, 72 h, no wilforlide A pretreatment, Table 25, background = 0.045
  A at 565 nm: 0.951
[6]
  mean A: 0.831
  viability at 2 µM: 71%
Lapatinib 2.0 μM, 72 h, no wilforlide A pretreatment, Table 27, background = 0.047
  A at 565 nm: 0.887 and 0.809 and 0.797
[7]
  mean A: 0.832
  viability at 2 µM: 72.5%
Lapatinib 2.0 μM, 72 h, pretreated with 25 μg/ml wilforlide A for 2 h, Table 26, background = 0.047
  A at 565 nm: 0.876 and 0.831 and 0.789
[8]
  mean A: 0.925
  viability at 6.7 µM: 74.2%
Lapatinib 6.7 μM, 72 h, no wilforlide A pretreatment, Table 25, background = 0.045
  A at 565 nm: 0.926 and 0.823
Lapatinib 6.7 μM, 72 h, no wilforlide A pretreatment, Table 27
  mean A: 0.795
